Here are results for eight compounds from patent US9751842B2, “Phthalazine derivatives” (Merck Patent GmbH, priority 2013, dated 2017).

In experiment [1] the target is T1, GST-tagged Tnks-2 (873-1166 aa) (Homo sapiens, UniProt Q9H2K2).
T1 construct: GST-tagged Tnks-2 (873-1166 aa, prepared in-house); made in house
The experiment is described as follows: TNKS2 activity ELISA (autoparsylation). It counts as biochemical. To be noted: activity ELISA, 1 hour at 30° C; read-out: IC50 TNKS2 ELISA. The protocol: (§1) Description of the TNKS1 and TNKS2 ELISA Assay
(§2) Biochemical Activity Testing of TNKS 1 and 2: Activity ELISA (Autoparsylation Assay)
(§3) For analysis of autoparsylation activity of TNKS 1 and 2 an activity ELISA is performed: In the first step GST tagged TNKS is captured on a Glutathione coated plate. Then the activity assay with biotinylated NAD is performed in the absence/presence of the compounds. During the enzymatic reaction GST tagged TNKS transfers biotinylated ADP-ribose to itself from biotinylated NAD as co-substrate. For the detection streptavidin-HRP conjugate is added that binds to the biotinylated TNKS and is thereby captured to the plates. The amount of biotinylated resp. autoparsylated TNKS is detected with a luminescence substrate for HRP. The level of the luminescence signal correlates directly with the amount of autoparsylated TNKS and therefore with activity of TNKS.
(§4) The activity ELISA is performed in 384 well Glutathione coated microtiter plates (Express capture Glutathione coated plate, Biocat, Heidelberg, Germany). The plates are pre-equilibrated with PBS. Then the plates are incubated with 50 μl 20 ng/well GST-tagged Tnks-1 (1023-1327 aa, prepared in-house), respectively GST-tagged Tnks-2 (873-1166 aa, prepared in-house) in assay buffer (50 mM HEPES, 4 mM Mg-chloride, 0.05% Pluronic F-68, 2 mM DTT, pH 7.7) overnight at 4° C. The plates are washed 3 times with PBS-Tween-20. The wells are blocked by incubation at room temperature for 20 minutes with 50 μl blocking buffer (PBS, 0.05% Tween-20, 0.5% BSA). Afterwards the plates are washed 3 times with PBS-Tween-20. The enzymatic reaction is performed in 50 μl reaction solution (50 mM HEPES, 4 mM Mg-chloride, 0.05% Pluronic F-68, 1.4 mM DTT, 0.5% DMSO, pH 7.7) with 10 μM bio-NAD (Biolog, Life science Inst., Bremen, Germany) as co-substrate in the absence or presence of the test compound (10 dilution concentrations) for 1 hour at 30° C. The reaction is stopped by 3 times washing with PBS-Tween-20. For the detection 50 μl of 20 ng/μl Streptavidin, HRP conjugate (MoBiTec, Göttingen, Germany) in PBS/0.05% Tween-20/0.01% BSA are added and the plates are incubated for 30 minutes at room temperature. After three times washing with PBS-Tween-20 50 μl of SuperSignal ELISA Femto Maximum sensitivity substrate solution (ThermoFisherScientific (Pierce), Bonn, Germany) are added. Following a 1 minute incubation at room temperature luminescence signals are measured with an Envision multimode reader (Perkin Elmer LAS Germany GmbH) at 700 nm. The full value used is the inhibitor-free reaction. The pharmacological zero value used is XAV-939 (Tocris) in a final concentration of 5 μM. The inhibitory values (IC50) are determined using either the program Symyx Assay Explorer® or Condosseo® from GeneData.
In general terms: An ELISA detects its analyte on a solid surface through an enzyme-linked reagent.

Experiment [2] concerns Tankyrase (Axin2 level in DLD1 cells). The experiment is described as follows: Cellular inhibition of Tankyrase, Axin2 Luminex assay in DLD1 cells. It counts as cell-based. The note with it: Homo sapiens, DLD-1, 24 hours, Axin2 level increase, read-out: IC50 Cell assay. How it is done: Measurement of Cellular Inhibition of Tankyrase
Since Tankyrases have been described to modulate cellular level of Axin2 (Huang et al., 2009; Nature) the increase of Axin2 level is used as read-out for determination of cellular inhibition of Tankyrases in a Luminex based assay.
Cells of the colon carcinoma cell line DLD1 are plated in 96 well plates with 1.5×10^4 cells per well. Next day, cells are treated with a serial dilution of test compound in seven steps as triplicates with a final DMSO concentration of 0.3%. After 24 hours, cells are lysed in lysis buffer (20 mM Tris/HCl pH 8.0, 150 mM NaCl, 1% NP40, 10% Glycerol) and lysates are cleared by centrifugation through a 96 well filter plate (0.65 μm). Axin2 protein is isolated from cell lysates by incubation with a monoclonal anti-Axin2 antibody (R&D Systems #MAB6078) that is bound to fluorescent carboxybeads. Then, bound Axin2 is specifically detected with a polyclonal anti-Axin2 antibody (Cell Signaling #2151) and an appropriate PE-fluorescent secondary antibody. The amount of isolated Axin2 protein is determined in a Luminex^200 machine (Luminex Corporation) according to the manufacturer's instruction by counting 100 events per well. Inhibition of Tankyrase by test compounds results in higher levels of Axin2 which directly correlates with an increase of detectable fluorescence. As controls cells are treated with solvent alone (neutral control) and with a Tankyrase reference inhibitor IWR-2 (3E-06 M) which refers as control for maximum increase of Axin2. For analysis, the obtained data are normalized against the untreated solvent control and fitted for determination of the EC50 values using the Assay Explorer software (Accelrys).

In experiment [3] the target is T2, GST-tagged Tnks-1 (1023-1327 aa) (Homo sapiens, UniProt O95271).
T2 construct: GST-tagged Tnks-1 (1023-1327 aa, prepared in-house); made in house
The experiment can be described thus: TNKS1 activity ELISA (autoparsylation). It counts as biochemical. To be noted: activity ELISA, 1 hour at 30° C; read-out: IC50 TNKS1 ELISA. How it is done: as §1, §2, §3, §4

T2 sequence (O95271 1023-1327): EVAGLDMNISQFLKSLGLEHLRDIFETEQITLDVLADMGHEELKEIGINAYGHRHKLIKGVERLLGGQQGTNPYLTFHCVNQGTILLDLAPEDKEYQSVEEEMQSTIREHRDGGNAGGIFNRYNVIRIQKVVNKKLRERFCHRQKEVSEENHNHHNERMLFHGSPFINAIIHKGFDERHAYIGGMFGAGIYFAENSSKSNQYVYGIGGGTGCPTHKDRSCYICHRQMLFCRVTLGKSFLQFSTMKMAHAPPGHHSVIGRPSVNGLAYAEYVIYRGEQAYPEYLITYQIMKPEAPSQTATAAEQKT
T1 sequence (Q9H2K2 873-1166): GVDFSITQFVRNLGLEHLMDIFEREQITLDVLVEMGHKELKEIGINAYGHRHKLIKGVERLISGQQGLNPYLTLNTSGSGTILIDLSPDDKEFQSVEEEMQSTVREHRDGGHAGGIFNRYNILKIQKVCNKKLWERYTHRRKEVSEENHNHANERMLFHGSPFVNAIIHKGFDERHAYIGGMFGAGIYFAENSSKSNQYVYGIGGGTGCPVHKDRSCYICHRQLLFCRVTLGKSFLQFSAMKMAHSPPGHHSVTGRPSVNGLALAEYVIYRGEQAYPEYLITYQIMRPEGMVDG

For the compound `O=C(Cc1ccccc1)Nc1nncc2ccccc12` [Compound A1, 2-phenyl-N-phthalazin-1-yl-acetamide], the 50% inhibitory concentration (IC50) (in general, the concentration needed to halve the response being measured) was 300 to 3000 nM in experiment [1], 3000 to 50000 nM in experiment [2] and less than 300 nM in experiment [3].

As to `COc1cccc(CC(=O)Nc2nncc3ccccc23)c1` [Compound A2, 2-(3-methoxyphenyl)-N-phthalazin-1-yl-acetamide], the IC50 fell in the range of 300 to 3000 nM in experiment [1], 3000 to 50000 nM in experiment [2] and 300 to 3000 nM in experiment [3].

For `COc1ccc(CC(=O)Nc2nncc3ccccc23)cc1` [Compound A3, 2-(4-methoxyphenyl)-N-phthalazin-1-yl-acetamide], the figures for the concentration for half-maximal inhibition (IC50) in experiment [1], in experiment [2] and in experiment [3] were less than 300 nM, 3000 to 50000 nM and less than 300 nM, respectively.

For the compound `CCOc1ccc(CC(=O)Nc2nncc3ccccc23)cc1` [Compound A4, 2-(4-ethoxyphenyl)-N-phthalazin-1-yl-acetamide], the half-inhibitory concentration (IC50) in experiment [1] was less than 300 nM; in experiment [2], 3000 to 50000 nM; in experiment [3], less than 300 nM.

Turning to `O=C(CCC1CCCC1)Nc1nncc2ccccc12` [Compound A15, 3-cyclopentyl-N-phthalazin-1-yl-propionamide], the IC50 in experiment [1] is less than 300 nM; in experiment [2], 3000 to 50000 nM; in experiment [3] it was less than 300 nM.

With `O=C(CCc1ccccc1Cl)Nc1nncc2ccccc12` [Compound A16, 3-(2-chloro-phenyl)-N-phthalazin-1-yl-propionamide], the IC50 in experiment [1] was less than 300 nM; in experiment [2], 3000 to 50000 nM; in experiment [3], less than 300 nM.

On to `Cc1cccc2cnnc(NC(=O)Cc3ccccc3)c12` [Compound A18, N-(8-methyl-phthalazin-1-yl)-2-phenyl-acetamide], for which the IC50 was less than 300 nM in experiment [1], 3000 to 50000 nM in experiment [2] and less than 300 nM in experiment [3].

`COc1ccc(CC(=O)Nc2nncc3cccc(C)c23)cc1` [Compound A20, 2-(4-methoxy-phenyl)-N-(8-methyl-phthalazin-1-yl)-acetamide]: the results for the half-maximal inhibitory concentration (IC50) in experiment [1], in experiment [2] and in experiment [3] were less than 300 nM, 3000 to 50000 nM and less than 300 nM, respectively.
